Data on 38 compounds can be found in patent US20160375006A1, “USES OF PARALOG-SELECTIVE INHIBITORS OF GSK3 KINASES” (priority 2012, published 2016).

Assay [1] deals with T1, GSK3β (Homo sapiens, UniProt P49841). Nature of the assay: biochemical.
A further assay has as its target GSK3α (Homo sapiens, UniProt P49840). Nature of the assay: biochemical.
Assay [2] concerns the target T1, GSK3β.
[3] abbreviates: Caliper assay, GSK3β over GSK3α.

Like-named read-outs stand apart in the source and are kept apart here.

T1 sequence (P49841 whole entry): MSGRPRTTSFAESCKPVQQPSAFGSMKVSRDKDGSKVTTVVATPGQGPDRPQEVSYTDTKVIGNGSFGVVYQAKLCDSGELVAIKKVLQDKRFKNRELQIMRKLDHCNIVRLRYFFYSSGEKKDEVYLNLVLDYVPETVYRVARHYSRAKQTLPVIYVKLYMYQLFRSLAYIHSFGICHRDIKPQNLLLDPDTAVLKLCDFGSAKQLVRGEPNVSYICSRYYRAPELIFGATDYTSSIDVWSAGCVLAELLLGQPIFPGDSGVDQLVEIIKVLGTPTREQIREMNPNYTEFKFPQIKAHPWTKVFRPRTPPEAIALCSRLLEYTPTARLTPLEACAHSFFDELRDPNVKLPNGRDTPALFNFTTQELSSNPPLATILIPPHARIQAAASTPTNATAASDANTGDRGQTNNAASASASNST
Chain of GSK3α (P49840 whole entry): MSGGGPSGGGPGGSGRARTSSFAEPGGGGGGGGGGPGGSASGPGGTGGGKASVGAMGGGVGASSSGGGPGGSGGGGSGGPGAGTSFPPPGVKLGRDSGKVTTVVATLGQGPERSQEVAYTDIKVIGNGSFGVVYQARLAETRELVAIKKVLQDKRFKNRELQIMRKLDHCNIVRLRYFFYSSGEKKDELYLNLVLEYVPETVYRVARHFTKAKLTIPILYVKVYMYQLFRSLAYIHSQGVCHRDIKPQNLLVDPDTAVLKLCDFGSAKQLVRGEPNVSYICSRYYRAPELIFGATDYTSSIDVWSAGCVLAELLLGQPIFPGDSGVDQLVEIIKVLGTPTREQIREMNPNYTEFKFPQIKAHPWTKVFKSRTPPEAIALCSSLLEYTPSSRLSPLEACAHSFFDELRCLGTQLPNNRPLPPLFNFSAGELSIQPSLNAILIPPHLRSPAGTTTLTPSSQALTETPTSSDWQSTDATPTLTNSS

`CC(C)c1[nH]nc2c1[C@@]1(CCc3ccccc31)C1=C(CC(C)(C)CC1=O)N2` (stereo in doubt) [Compound 242]: the results for the IC50 against GSK3β [1] and at GSK3α were 16 nM and 81 nM, respectively. In addition, the GSK3β fold selectivity on GSK3β [2] (setting [3]) is 5.1 fold.
The like results for `COc1ccccc1[C@H]1C2=C(CC(C)(C)CC2=O)Nc2n[nH]c(CC(C)(C)C)c21` (stereo in doubt) [Compound 279] were, in that order, 14 nM, 135 nM and 9.6 fold.
The matching figures for `CCC(C)(C)Cc1[nH]nc2c1[C@@]1(CCc3cc(F)ccc31)C1=C(CC(C)(C)CC1=O)N2` (stereo in doubt) [Compound 293]: 127 nM, 1440 nM and 11.3 fold.
In the case of `CC1(C)CC(=O)C2=C(C1)Nc1n[nH]c(C3CC(F)(F)C3)c1[C@]21CCOc2ccccc21` [Compound 270], the IC50 was determined as 210 nM at GSK3β [1] and 1630 nM against GSK3α. The compound also returned a GSK3β fold selectivity at GSK3β [2] of 7.8 fold.
Regarding `CCC1(c2ccccc2)C2=C(CC(C)(C)CC2=O)Nc2n[nH]c(CC(C)(C)C)c21` (stereo not shown) [Compound 274], the figures for the half-inhibitory concentration (IC50) against GSK3β [1] and against GSK3α were 100 nM and 340 nM, respectively. The same compound displayed a GSK3β fold selectivity at GSK3β [2] (setting [3]) of 3.4 fold.
For the compound `CC1(C)CC(=O)C2=C(C1)Nc1n[nH]c(C3CC(F)(F)C3)c1[C@]2(C)c1cccc(C(F)(F)F)c1` (stereo in doubt) [Compound 248], the figures for the IC50 against GSK3β [1] and at GSK3α were 30 nM and 86 nM, respectively. This compound had a GSK3β fold selectivity at GSK3β [2] (setting [3]) of 2.9 fold.
The like results for `CC(C)(C)Cc1[nH]nc2c1[C@@]1(CCc3cc(F)ccc31)C1=C(CC(C)(C)CC1=O)N2` (stereo in doubt) [Compound 285] were, in that order, 11 nM, 249 nM and 22.6 fold.
The matching figures for `CC(C)Cc1[nH]nc2c1[C@](C)(c1ccccc1)C1=C(CC(C)(C)CC1=O)N2` (stereo in doubt) [Compound 307]: 41 nM, 237 nM and 5.8 fold.
In the case of `CC1(C)CC(=O)C2=C(C1)Nc1n[nH]c(C3CC(F)(F)C3)c1C21CCc2cc(F)ccc21` (racemic) [Compound 264], the IC50 turned out to be 206 nM on GSK3β [1] and 1490 nM against GSK3α. The compound also registered a GSK3β fold selectivity at GSK3β [2] of 7.2 fold.
Take `COc1ccccc1[C@@]1(C)C2=C(CC(C)(C)CC2=O)Nc2n[nH]c(C3CC(F)(F)C3)c21` (stereo in doubt) [Compound 255]: the 50% inhibitory concentration (IC50) was found to be 13400 nM on GSK3β [1] and 28000 nM on GSK3α. The same compound registered a GSK3β fold selectivity at GSK3β [2] (setting [3]) of 2.1 fold.
For `CC(C)(C)Cc1[nH]nc2c1[C@@](C)(c1ccc(F)cc1)C1=C(CC(C)(C)CC1=O)N2` (stereo in doubt) [Compound 277], the results for the half-inhibitory concentration (IC50) against GSK3β [1] and at GSK3α were 949 nM and 2800 nM, respectively. The compound also registered a GSK3β fold selectivity on GSK3β [2] (setting [3]) of 3.0 fold.
Turning to `COc1cc(F)ccc1[C@H]1C2=C(CC(C)(C)CC2=O)Nc2n[nH]c(C(C)C)c21` [Compound 323], the concentration for half-maximal inhibition (IC50) against GSK3β [1] is 20 nM; at GSK3α, 271 nM. The same compound gave a GSK3β fold selectivity on GSK3β [2] (setting [3]) of 13.6 fold.
The matching figures for `CCC(C)(C)Cc1[nH]nc2c1[C@]1(CCc3cc(F)ccc31)C1=C(CC(C)(C)CC1=O)N2` (stereo in doubt) [Compound 294]: 785 nM, 4760 nM and 6.1 fold.
The matching figures for `COc1cc(F)ccc1[C@@H]1C2=C(CC(C)(C)CC2=O)Nc2n[nH]c(C(C)C)c21` [Compound 324]: 332 nM, 920 nM and 2.8 fold.
The matching figures for `CC(C)(C)Cc1[nH]nc2c1[C@@]1(CCc3ccccc31)C1=C(CC(C)(C)CC1=O)N2` (stereo in doubt) [Compound 282]: 1.7 nM, 28 nM and 16.5 fold.
As to `CC(C)(C)Cc1[nH]nc2c1[C@@](C)(c1ccccc1)C1=C(CC(C)(C)CC1=O)N2` (stereo in doubt) [Compound 273], the IC50 at GSK3β [1] was 1050 nM; against GSK3α it was 6700 nM. Further, at GSK3β [2] (setting [3]), the GSK3β fold selectivity is on record as 6.4 fold.
The matching figures for `CC(C)(C)Cc1[nH]nc2c1[C@]1(CCOc3ccccc31)C1=C(CC(C)(C)CC1=O)N2` (stereo in doubt) [Compound 289]: 530 nM, 2980 nM and 5.6 fold.
As for `CCC(C)(C)Cc1[nH]nc2c1[C@@](C)(c1ccccc1)C1=C(CC(C)(C)CC1=O)N2` (stereo in doubt) [Compound 292], the half-inhibitory concentration (IC50) against GSK3β [1] came out at 3020 nM; on GSK3α it was 12000 nM. This compound registered a GSK3β fold selectivity on GSK3β [2] (setting [3]) of 4.0 fold.
With `CC1(C)CC(=O)C2=C(C1)Nc1n[nH]c(C3CC(F)(F)C3)c1[C@@]2(C)c1ccccc1` (stereo in doubt) [Compound 128], the concentration for half-maximal inhibition (IC50) against GSK3β [1] was found to be 468 nM; against GSK3α, 8220 nM. For the same compound, the GSK3β fold selectivity at GSK3β [2] (setting [3]) and at GSK3β [2] (GSK3β over GSK3α) was 17.6 fold each time.
Regarding `CC1(C)CC(=O)C2=C(C1)Nc1n[nH]c(C3CC(F)(F)C3)c1[C@@]21CCOc2ccccc21` [Compound 269], the results for the IC50 against GSK3β [1] and on GSK3α were 18 nM and 164 nM, respectively. This compound yielded a GSK3β fold selectivity at GSK3β [2] of 9.1 fold.
For the compound `CC(C)c1[nH]nc2c1C(C)(c1ccccc1)C1=C(CC(C)(C)CC1=O)N2` (stereo not shown) [Compound 296], the half-inhibitory concentration (IC50) at GSK3β [1] turned out to be 76 nM; at GSK3α, 241 nM. Further, the GSK3β fold selectivity at GSK3β [2] (setting [3]) is 3.2 fold.
The like results for `COc1ccccc1[C@@H]1C2=C(CC(C)(C)CC2=O)Nc2n[nH]c(CC(C)(C)C)c21` (stereo in doubt) [Compound 280] were, in that order, 1910 nM, 10600 nM and 5.6 fold.
The like results for `CC(C)c1[nH]nc2c1[C@]1(CCc3ccccc31)C1=C(CC(C)(C)CC1=O)N2` (stereo in doubt) [Compound 243] were, in that order, 27 nM, 178 nM and 6.6 fold.
As for `CC1(C)CC(=O)C2=C(C1)Nc1n[nH]c(C3CC(F)(F)C3)c1C21CCc2c(F)cccc21` (racemic) [Compound 261], the values for the half-maximal inhibitory concentration (IC50) against GSK3β [1] and at GSK3α were 56 nM and 426 nM, respectively. At GSK3β [2], this compound returned a GSK3β fold selectivity of 7.6 fold.
The like results for `CC1(C)CC(=O)C2=C(C1)Nc1n[nH]c(C3CC(F)(F)C3)c1[C@]21CCc2cc(F)ccc21` [Compound 266] were, in that order, 38 nM, 342 nM and 9.0 fold.
Take `CC(C)c1[nH]nc2c1[C@@](C)(c1ccccc1Cl)C1=C(CC(C)(C)CC1=O)N2` (stereo in doubt) [Compound 317]: the 50% inhibitory concentration (IC50) on GSK3β [1] was 3430 nM; at GSK3α, 12900 nM. Moreover, the GSK3β fold selectivity on GSK3β [2] (setting [3]) amounted to 3.8 fold.
The like results for `CC1(C)CC(=O)C2=C(C1)Nc1n[nH]c(C3CCCCC3)c1C2(C)c1ccccc1` (racemic) [Compound 303] were, in that order, 746 nM, 1850 nM and 2.5 fold.
On to `COc1ccccc1[C@@H]1C2=C(CC(C)(C)CC2=O)Nc2n[nH]c(C3CC(F)(F)C3)c21` (stereo in doubt) [Compound 252], for which the IC50 was 23 nM on GSK3β [1] and 191 nM at GSK3α. This compound came in with a GSK3β fold selectivity at GSK3β [2] (setting [3]) of 8.3 fold.
The like results for `CC1(C)CC(=O)C2=C(C1)Nc1n[nH]c(Cc3ccccc3)c1[C@]2(C)c1ccccc1` (stereo in doubt) [Compound 327] were, in that order, 185 nM, 607 nM and 3.3 fold.
The matching figures for `CCC(C)(C)Cc1[nH]nc2c1C(C)(c1ccccc1)C1=C(CC(C)(C)CC1=O)N2` (racemic) [Compound 290]: 44 nM, 379 nM and 8.6 fold.
The matching figures for `CCC(C)c1[nH]nc2c1C(C)(c1ccccc1)C1=C(CC(C)(C)CC1=O)N2` (stereo not shown) [Compound 299]: 90 nM, 277 nM and 3.1 fold.
With `CC1(C)CC(=O)C2=C(C1)Nc1n[nH]c(C3CC(F)(F)C3)c1[C@@]21CCc2c(F)cccc21` [Compound 262], the IC50 against GSK3β [1] was 124 nM; on GSK3α, 542 nM. The same compound yielded a GSK3β fold selectivity at GSK3β [2] of 4.4 fold.
Regarding `CC1(C)CC(=O)C2=C(C1)Nc1n[nH]c(C3CCCC3)c1C2(C)c1ccccc1` (racemic) [Compound 300], the IC50 at GSK3β [1] was determined as 439 nM; at GSK3α it was 1520 nM. On GSK3β [2] (setting [3]), this compound gave a GSK3β fold selectivity of 3.5 fold.
On to `CC1(C)CC(=O)C2=C(C1)Nc1n[nH]c(C3CC(F)(F)C3)c1[C@]21CCc2ccccc21` [Compound 260], for which the IC50 against GSK3β [1] came to 53 nM; against GSK3α it was 444 nM. On GSK3β [2], this compound displayed a GSK3β fold selectivity of 8.4 fold.
On to `COc1ccccc1C1C2=C(CC(C)(C)CC2=O)Nc2n[nH]c(C3CC(F)(F)C3)c21` (racemic) [Compound 250], for which the IC50 was determined as 30 nM at GSK3β [1] and 392 nM against GSK3α. At GSK3β [2] (setting [3]), this compound yielded a GSK3β fold selectivity of 13.1 fold.
With `CC(C)Cc1[nH]nc2c1[C@@](C)(c1ccccc1)C1=C(CC(C)(C)CC1=O)N2` (stereo in doubt) [Compound 308], the IC50 against GSK3β [1] is 4040 nM; on GSK3α, 22300 nM. The compound also came in with a GSK3β fold selectivity at GSK3β [2] (setting [3]) of 5.5 fold.
The matching figures for `CC1(C)CC(=O)C2=C(C1)Nc1n[nH]c(C3CC(F)(F)C3)c1[C@@]2(C)c1cccc(C(F)(F)F)c1` (stereo in doubt) [Compound 249]: 1550 nM, 4790 nM and 3.1 fold.
The matching figures for `CC[C@]1(c2ccccc2)C2=C(CC3(COC3)CC2=O)Nc2n[nH]cc21` (stereo in doubt) [Compound 238]: 12300 nM, 26900 nM and 2.2 fold.
